Target: T1, Or67d (Or67d^+[1]) (Drosophila melanogaster, UniProt Q9VT92)
T1 construct: native full-length receptor in trichoid T1 sensilla of living flies; with Odorant receptor coreceptor
T1 sequence (Q9VT92 1-391): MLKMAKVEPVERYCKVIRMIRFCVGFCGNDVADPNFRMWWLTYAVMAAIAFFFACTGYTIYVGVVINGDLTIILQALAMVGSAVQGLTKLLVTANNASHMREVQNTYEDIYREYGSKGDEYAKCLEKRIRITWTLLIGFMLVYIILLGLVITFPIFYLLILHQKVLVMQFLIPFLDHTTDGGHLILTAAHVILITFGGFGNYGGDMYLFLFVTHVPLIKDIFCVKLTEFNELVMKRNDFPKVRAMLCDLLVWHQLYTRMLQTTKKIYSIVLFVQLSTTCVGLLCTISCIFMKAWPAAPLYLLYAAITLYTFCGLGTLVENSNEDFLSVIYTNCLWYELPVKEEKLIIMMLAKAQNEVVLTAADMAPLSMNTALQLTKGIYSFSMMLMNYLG
T1 sequence (Q9VNB5 1-486 partner): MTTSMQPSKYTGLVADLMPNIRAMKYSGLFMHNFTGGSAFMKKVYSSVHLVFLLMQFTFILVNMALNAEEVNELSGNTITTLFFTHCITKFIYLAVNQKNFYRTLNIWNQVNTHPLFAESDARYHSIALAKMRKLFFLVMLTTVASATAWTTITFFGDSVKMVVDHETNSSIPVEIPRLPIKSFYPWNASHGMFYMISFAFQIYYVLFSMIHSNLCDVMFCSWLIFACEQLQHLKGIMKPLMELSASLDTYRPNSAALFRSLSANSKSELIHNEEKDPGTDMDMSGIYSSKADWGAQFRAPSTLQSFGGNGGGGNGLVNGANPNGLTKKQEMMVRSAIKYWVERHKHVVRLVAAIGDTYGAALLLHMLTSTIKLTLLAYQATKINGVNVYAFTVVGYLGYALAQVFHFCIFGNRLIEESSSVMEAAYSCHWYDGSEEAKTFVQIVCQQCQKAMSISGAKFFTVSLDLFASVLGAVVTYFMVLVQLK
Test: single sensillum recording, Drosophila T1 trichoid sensilla
Assay type: cell-based
Details: 10 μg source dose on filter paper; agonist; n = 7

CCCC/C=C\CCCCCCCCCCOC(C)=O [Z11-16:OAc, (Z)-11-hexadecenyl acetate]
spikes/sec: 87 ± 15.87 spikes/sec

— PMC4015405, “Specificity of the Receptor for the Major Sex Pheromone Component in Heliothis virescens” (Journal of Insect Science, 2013)
